1 molecule from paper PMC7933930, “Development of a small molecule that corrects misfolding and increases secretion of Z α1‐antitrypsin” (EMBO Molecular Medicine, 2021) can be followed below.

Molecules are shown by their SMILES. pIC50: −log10 of the molar value.

The subject of test [1] is Z α1‐antitrypsin polymers. Briefly: Liver polymer load in Z α1‐antitrypsin transgenic mice (2C1 immunohistochemistry). Conditions: 100 mg/kg three times a day for 20 days, versus vehicle. Format: in vivo, mouse. The method, then: Since GSK716 blocks polymer formation in cells, we explored the effect of dosing GSK716 on liver polymer levels. […] GSK716 was dosed at 100 mg/kg three times a day for 20 days. […] Liver polymer levels were investigated by staining with 2C1 anti‐polymer monoclonal antibody and were scored blind by a pathologist or by quantification using an algorithm to measure all areas of positive staining (Fig EV1). There was no difference observed in total liver polymer load when assessed by manual or quantitative scoring (Fig 6B and C). There was no significant fibrosis in any of the liver sections. Intrahepatic α1‐antitrypsin was also assessed by ELISA. […] Treatment with GSK716 increased the monomer measured in liver homogenate by approx. fourfold in keeping with the changes seen in blood.
Formalin‐fixed, paraffin‐embedded livers from all mice were sectioned and stained with haematoxylin and eosin (H&E) and periodic acid Schiff (PAS) with diastase to examine tissue quality and the presence of diastase‐resistant polymer inclusions, respectively. […] Representative sections of liver from each mouse were blindly evaluated by a Board‐Certified Veterinary Pathologist and ranked in order of polymer content. A semi‐automated image analysis solution was developed to quantify total polymer content (Fig EV1). […]

A further test deals with OATP1B1 (Homo sapiens, UniProt Q9Y6L6). Briefly: Off‐target panel: OATP1B1. Format: in vitro ADME. The following applies: Inhibition, read-out: Mean (PXC50). On the procedure:
GSK716 selectivity and PK properties were profiled in order to investigate the suitability of GSK716 for progression into in vivo studies and the potential for taking it forward as a clinical candidate for testing in humans. Since GSK716 results in loss of inhibitory activity of α1‐antitrypsin, the effect of the compound was assessed on other closely related serpins. […] Furthermore, there were no off‐target effects in a panel of assays considered predictive of known safety liabilities that precluded further development of GSK716 (Table EV1).

The target in a further test is T1, M α1‐antitrypsin (Homo sapiens, UniProt P01009).
T1 construct: purified from the plasma of M (wild‐type) and Z α1‐antitrypsin homozygotes; from tissue; host or cells: human plasma of M (wild-type) homozygotes
T1 sequence (P01009 25-418): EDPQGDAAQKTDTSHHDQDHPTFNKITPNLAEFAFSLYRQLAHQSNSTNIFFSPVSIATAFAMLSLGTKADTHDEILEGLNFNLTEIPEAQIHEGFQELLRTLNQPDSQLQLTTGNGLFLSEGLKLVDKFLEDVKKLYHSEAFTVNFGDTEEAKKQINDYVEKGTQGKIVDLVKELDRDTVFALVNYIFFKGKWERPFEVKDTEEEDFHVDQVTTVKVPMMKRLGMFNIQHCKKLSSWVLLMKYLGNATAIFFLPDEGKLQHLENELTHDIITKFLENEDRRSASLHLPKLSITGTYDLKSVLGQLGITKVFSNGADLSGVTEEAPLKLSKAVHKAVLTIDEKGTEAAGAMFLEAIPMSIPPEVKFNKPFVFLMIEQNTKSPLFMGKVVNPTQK
The experiment in a line: Stoichiometry of inhibition against chymotrypsin, M α1‐antitrypsin. Format: biochemical. Conditions: M α1‐antitrypsin pre‐incubated with GSK716 (50µM), read-out: loss of protease inhibitory activity. On the procedure: Mutations that interfere with the opening of β‐sheet A or that perturb its interaction with the N‐terminal portion of the reactive centre loop alter the ability of serpins to inhibit target proteases (Hood et al, 1994; Irving et al, 2014). The stoichiometry of inhibition (SI) was determined for M α1‐antitrypsin and Z α1‐antitrypsin in discontinuous experiments against a model target protease, chymotrypsin. The pre‐incubation of both variants with GSK716 led to a > 98% loss of protease inhibitory activity (Fig 5A).
Figure 5 The effect of GSK716 on serpin inhibitory activity • α1‐Antitrypsin was incubated at varying molar ratios with the model protease bovine α‐chymotrypsin, and the residual protease activity determined. […] The position of covalent α1‐antitrypsin‐chymotrypsin complex (cpx), native (nat) and cleaved (clv) is shown. • The inhibitory activity of α1‐antichymotrypsin against chymotrypsin (ach + chym), neuroserpin against trypsin (neus + tryp), and antithrombin against thrombin (atiii + thrombin) was determined in the presence and absence of GSK716. […]
The native state stability of α1‐antitrypsin on addition of compounds was investigated by thermal denaturation in the presence of a 5X concentration of SYPRO Orange dye solution (Life Technologies) (Nettleship et al, 2008). Resistance to heat‐induced polymerisation was determined using an end‐point constant‐temperature assay. […]

Sequence of OATP1B1 (Q9Y6L6 whole entry, species assumed): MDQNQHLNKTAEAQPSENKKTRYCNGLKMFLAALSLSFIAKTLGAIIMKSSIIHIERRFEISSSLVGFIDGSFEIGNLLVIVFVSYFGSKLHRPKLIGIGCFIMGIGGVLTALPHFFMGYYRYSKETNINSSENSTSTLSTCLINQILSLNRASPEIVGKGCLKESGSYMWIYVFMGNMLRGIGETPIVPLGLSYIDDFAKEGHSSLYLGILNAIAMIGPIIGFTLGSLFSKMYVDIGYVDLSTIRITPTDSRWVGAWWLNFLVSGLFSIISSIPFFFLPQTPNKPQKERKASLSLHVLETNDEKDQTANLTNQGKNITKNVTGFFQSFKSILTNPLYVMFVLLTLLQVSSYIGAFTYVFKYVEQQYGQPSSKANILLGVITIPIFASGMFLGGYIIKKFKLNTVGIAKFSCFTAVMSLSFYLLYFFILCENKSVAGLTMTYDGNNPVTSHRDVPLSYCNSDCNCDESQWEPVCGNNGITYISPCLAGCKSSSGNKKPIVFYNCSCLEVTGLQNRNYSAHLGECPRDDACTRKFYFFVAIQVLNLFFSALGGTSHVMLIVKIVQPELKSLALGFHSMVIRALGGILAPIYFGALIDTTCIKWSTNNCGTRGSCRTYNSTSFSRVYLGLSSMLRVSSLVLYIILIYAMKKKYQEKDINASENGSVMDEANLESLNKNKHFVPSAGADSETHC

For `CCC[C@@H](NC(=O)c1cccc2c1CC(=O)N2)[C@@H](O)c1cccc(F)c1C` [GSK716], the “total liver polymer load (manual or quantitative scoring of 2C1 staining)” value in test [1] is recorded as “no difference”. Moreover, the pIC50 on OATP1B1 was under 4.30. On M α1‐antitrypsin, the inhibition at 50 µM was over 98%.
